Results published in patent USRE48461E1, “Modulation of androgen receptor expression” (Ionis Pharmaceuticals, Inc., priority 2012, dated 2021).
Oligonucleotides are written 5' to 3', each unit as a sugar letter and its base; * is a phosphorothioate linkage, no mark a phosphodiester; rarer units and linkages stand in square brackets, end groups in braces. Plain capitals give the bases only. e = 2'-O-(2-methoxyethyl) (MOE); k = constrained ethyl (cEt); [5mC] = 5-methylcytosine; d = 2'-deoxy (DNA)

Key:
AR mRNA [1] = assay: Dose-dependent antisense inhibition of human AR in HuVEC cells (electroporation, qRT-PCR RTS3559, IC50); format: cell-based; details: HuVEC, ~16 h
Experimental: (§1) After a treatment period of approximately 16 hours, RNA was isolated from the cells and AR mRNA levels were measured by quantitative real-time PCR. Human AR primer probe set RTS3559 was used to measure mRNA levels. AR mRNA levels were adjusted according to total RNA content, as measured by RIBOGREEN®. […] The antisense oligonucleotides were tested in a series of experiments that had similar culture conditions.
as §1, §1, §1, §1
(§2) After a treatment period of approximately 16 hours, RNA was isolated from the cells and AR mRNA levels were measured by quantitative real-time PCR. Human AR primer probe set RTS3559 was used to measure mRNA levels. AR mRNA levels were adjusted according to total RNA content, as measured by RIBOGREEN®.
as §2

AR mRNA [2] = assay: Antisense inhibition of human AR in HuVEC cells, single concentration (electroporation, qRT-PCR RTS3559); format: cell-based; details: 1,000 nM ASO, ~24 h, Table 13
Experimental: Antisense oligonucleotides were designed targeting an AR nucleic acid and were tested for their effects on AR mRNA in vitro. The antisense oligonucleotides were tested in a series of experiments that had similar culture conditions. […] Human primer probe set RTS3559 (forward sequence [NT], designated herein as SEQ ID NO: 9; reverse sequence [NT], designated herein as SEQ ID NO: 10; probe sequence [NT], designated herein as SEQ ID NO: 11) was used to measure mRNA levels. AR mRNA levels were adjusted according to total RNA content, as measured by RIBOGREEN®. […] A total of 155 oligonucleotides were tested. Additional antisense oligonucleotides were designed targeting an AR nucleic acid and were tested for their effects on AR mRNA in vitro. […] Human primer probe set RTS3559 was used to measure mRNA levels. AR mRNA levels were adjusted according to total RNA content, as measured by RIBOGREEN®. […] A total of 82 oligonucleotides were tested. Additional antisense oligonucleotides were designed targeting an AR nucleic acid and were tested for their effects on AR mRNA in vitro. […] Human primer probe set RTS3559 was used to measure mRNA levels. AR mRNA levels were adjusted according to total RNA content, as measured by RIBOGREEN®. […] A total of 40 oligonucleotides were tested. Additional antisense oligonucleotides were designed targeting an AR nucleic acid and were tested for their effects on AR mRNA in vitro. […] Human primer probe set RTS3559 was used to measure mRNA levels. AR mRNA levels were adjusted according to total RNA content, as measured by RIBOGREEN®. […] A total of 75 oligonucleotides were tested. Additional antisense oligonucleotides were designed targeting an AR nucleic acid and were tested for their effects on AR mRNA in vitro. […] Human primer probe set RTS3559 was used to measure mRNA levels. AR mRNA levels were adjusted according to total RNA content, as measured by RIBOGREEN®. […] A total of 616 oligonucleotides were tested. Additional antisense oligonucleotides were designed targeting an AR nucleic acid and were tested for their effects on AR mRNA in vitro. […] Human primer probe set RTS3559 was used to measure mRNA levels. AR mRNA levels were adjusted according to total RNA content, as measured by RIBOGREEN®. […] A total of 385 oligonucleotides were tested.

## 569217 (antisense eG*kT*kT*kG*dA*dT*dT*dT*dA*dA*dT*dG*kG*kT*kT*eG) [compound 569217]
AR mRNA [1]; 62.5 nM, Table 12
  percent inhibition of AR: 34%
AR mRNA [1]; 125.0 nM, Table 12
  percent inhibition of AR: 39%
AR mRNA [1]; 500.0 nM, Table 12
  percent inhibition of AR: 64%
AR mRNA [1]; 1000.0 nM, Table 12
  percent inhibition of AR: 64%
AR mRNA [1]; Table 12
  IC50: 247 nM

## 579669 (antisense eG*kG*kT*eT*eG*kA*kT*dT*dT*dA*dA*dT*dG*dG*kT*kT) [compound 579669]
AR mRNA [1]; 62.5 nM, Table 11
  percent inhibition of AR: 24%
AR mRNA [1]; 125.0 nM, Table 11
  percent inhibition of AR: 39%
AR mRNA [1]; 500.0 nM, Table 11
  percent inhibition of AR: 74%
AR mRNA [1]; 1000.0 nM, Table 11
  percent inhibition of AR: 91%
AR mRNA [1]; Table 11
  IC50: 207 nM

## 579670 (antisense eT*kG*kA*eT*kT*kT*dA*dA*dT*dG*dG*dT*dT*kG*k[5mC]*kA) [compound 579670]
AR mRNA [1]; 62.5 nM, Table 11
  percent inhibition of AR: 27%
AR mRNA [1]; 125.0 nM, Table 11
  percent inhibition of AR: 28%
AR mRNA [1]; 500.0 nM, Table 11
  percent inhibition of AR: 75%
AR mRNA [1]; 1000.0 nM, Table 11
  percent inhibition of AR: 70%
AR mRNA [1]; Table 11
  IC50: 236 nM

## 579672 (antisense eG*kT*kT*eG*kA*kT*dT*dT*dA*dA*dT*dG*dG*kT*kT*kG) [compound 579672]
AR mRNA [1]; 62.5 nM, Table 11
  percent inhibition of AR: 9%
AR mRNA [1]; 125.0 nM, Table 11
  percent inhibition of AR: 30%
AR mRNA [1]; 500.0 nM, Table 11
  percent inhibition of AR: 72%
AR mRNA [1]; 1000.0 nM, Table 11
  percent inhibition of AR: 86%
AR mRNA [1]; Table 11
  IC50: 258 nM

## 585233 (kA*kG*kT*dT*dG*dT*dA*dG*dT*dA*dG*kT*e[5mC]*eG*e[5mC]*eG) [compound 585233]
AR mRNA [2]
  % inhibition: 69%

## 585259 (eA*kA*kG*kT*dT*dG*dT*dA*dG*dT*dA*dG*dT*k[5mC]*kG*k[5mC]) [compound 585259]
AR mRNA [2]
  % inhibition: 71%

## 585262 (kA*kA*kG*dT*dT*dG*dT*dA*dG*dT*dA*dG*kT*k[5mC]*kG*e[5mC]) [compound 585262]
AR mRNA [2]
  % inhibition: 77%

## 585263 (kA*kA*kG*dT*dT*dG*dT*dA*dG*dT*dA*kG*kT*k[5mC]*eG*e[5mC]) [compound 585263]
AR mRNA [2]
  % inhibition: 69%

## 585264 (kA*kA*kG*dT*dT*dG*dT*dA*dG*dT*kA*kG*kT*e[5mC]*eG*e[5mC]) [compound 585264]
AR mRNA [2]
  % inhibition: 62%

## 585265 (eA*eA*kG*kT*dT*dG*dT*dA*dG*dT*dA*dG*kT*k[5mC]*eG*e[5mC]) [compound 585265]
AR mRNA [2]
  % inhibition: 69%

## 585268 (kA*eA*kG*eT*dT*dG*dT*dA*dG*dT*dA*dG*eT*k[5mC]*eG*k[5mC]) [compound 585268]
AR mRNA [2]
  % inhibition: 72%

## 585269 (eA*kA*eG*kT*dT*dG*dT*dA*dG*dT*dA*dG*eT*k[5mC]*eG*k[5mC]) [compound 585269]
AR mRNA [2]
  % inhibition: 73%

## 585271 (eA*kA*kG*dT*dT*dG*dT*dA*dG*dT*dA*dG*dT*k[5mC]*kG*e[5mC]) [compound 585271]
AR mRNA [2]
  % inhibition: 57%

## 585274 (kA*kA*kG*dT*dT*dG*dT*dA*dG*dT*dA*dG*dT*k[5mC]*kG*e[5mC]) [compound 585274]
AR mRNA [2]
  % inhibition: 65%
